Experimental data from patent publication US20020132776A1, “Inhibitors of transglutaminase” (N-Zyme Biotech GmbH, priority 2000, published 2002).
Each block holds one compound with its values, some of them ahead of it. Where a SMILES comes first, the peptide text is derived from it. The star is where a group is joined. Cbz = O=C(OCc1ccccc1)*; ClAc = O=C(CCl)*; For = O=C*

Key:
Type in all cases: biochemical
[1] = biological target: T1, guinea pig liver transglutaminase (Cavia cutleri, UniProt P08587); test: Inhibition of tissue transglutaminase, hydroxamate assay (Example 29); conditions: 20 min preincubation at 37° C., first block r5-r22
T1 sequence (P08587 1-690): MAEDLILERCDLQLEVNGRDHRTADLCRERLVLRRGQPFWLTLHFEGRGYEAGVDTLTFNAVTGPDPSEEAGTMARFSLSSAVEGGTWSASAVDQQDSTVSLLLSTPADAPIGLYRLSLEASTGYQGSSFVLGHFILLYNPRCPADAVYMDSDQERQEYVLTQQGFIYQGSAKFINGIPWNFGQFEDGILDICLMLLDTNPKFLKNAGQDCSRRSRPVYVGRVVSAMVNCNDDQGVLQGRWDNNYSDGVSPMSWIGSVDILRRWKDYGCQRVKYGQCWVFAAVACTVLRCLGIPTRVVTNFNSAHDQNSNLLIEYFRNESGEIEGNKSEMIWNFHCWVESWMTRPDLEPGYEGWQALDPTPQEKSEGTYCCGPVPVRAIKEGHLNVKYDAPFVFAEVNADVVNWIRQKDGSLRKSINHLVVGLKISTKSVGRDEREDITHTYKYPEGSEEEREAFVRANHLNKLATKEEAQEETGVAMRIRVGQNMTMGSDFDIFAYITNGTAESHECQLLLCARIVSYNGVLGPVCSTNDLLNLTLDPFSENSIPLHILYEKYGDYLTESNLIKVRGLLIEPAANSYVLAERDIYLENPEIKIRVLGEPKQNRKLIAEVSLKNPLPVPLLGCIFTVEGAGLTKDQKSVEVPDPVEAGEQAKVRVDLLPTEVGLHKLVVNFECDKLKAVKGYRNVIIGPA
Procedure: The inhibitors are dissolved in dimethyl sulfoxide (DMSO) at a concentration of 100 mM. Solutions having a concentration of 10 mM, 1 mM and 0.1 mM are prepared by dilution with transglutaminase buffer (50 mM Tris-HCl, pH 7.0, 5 mM CaCl2, 2 mM DTT).
Afterwards, inhibition takes place by incubation (20 minutes at 37° C.) of 25 μL of a transglutaminase solution (bacterial transglutaminase or guinea pig liver transglutaminase, respectively) with 25 μL of the respective inhibitor solution. Immediately after the incubation has finished, 100 μL of substrate solution (0.1 mM hydroxylamine, 30 mM CBZ-Gln-Gly-OH, 2 mM DTT, 5 mM CaCl2 in 50 mM Tris-HCl, pH 7.0) are added and it is incubated for 10 minutes at 37° C. The reaction is stopped with 100 μL of a solution of 4% (w/v) HCl, 1.7% (w/v) FeCl3 and 4% (w/v) trichloroacetic acid [see Grossowicz et al., J. Biol. Chem. 187, 111-125, 1950]. After centrifugation (10 minutes, 10,000× g) the extinction of the supernatant solution at 492 nm in the microtiter plate reader and, thus, the remaining activity of the transglutaminase is determined.

factor XIIIa = biological target: T2, factor XIIIa (Homo sapiens, UniProt P00488); test: Factor XIIIa fibrin coagulation/crosslinking inhibitor test (Example 31); conditions: inhibitor concentration range 0 to 10 μm; absorption of clots at 405 nm
T2 sequence (P00488 39-732 limits assumed): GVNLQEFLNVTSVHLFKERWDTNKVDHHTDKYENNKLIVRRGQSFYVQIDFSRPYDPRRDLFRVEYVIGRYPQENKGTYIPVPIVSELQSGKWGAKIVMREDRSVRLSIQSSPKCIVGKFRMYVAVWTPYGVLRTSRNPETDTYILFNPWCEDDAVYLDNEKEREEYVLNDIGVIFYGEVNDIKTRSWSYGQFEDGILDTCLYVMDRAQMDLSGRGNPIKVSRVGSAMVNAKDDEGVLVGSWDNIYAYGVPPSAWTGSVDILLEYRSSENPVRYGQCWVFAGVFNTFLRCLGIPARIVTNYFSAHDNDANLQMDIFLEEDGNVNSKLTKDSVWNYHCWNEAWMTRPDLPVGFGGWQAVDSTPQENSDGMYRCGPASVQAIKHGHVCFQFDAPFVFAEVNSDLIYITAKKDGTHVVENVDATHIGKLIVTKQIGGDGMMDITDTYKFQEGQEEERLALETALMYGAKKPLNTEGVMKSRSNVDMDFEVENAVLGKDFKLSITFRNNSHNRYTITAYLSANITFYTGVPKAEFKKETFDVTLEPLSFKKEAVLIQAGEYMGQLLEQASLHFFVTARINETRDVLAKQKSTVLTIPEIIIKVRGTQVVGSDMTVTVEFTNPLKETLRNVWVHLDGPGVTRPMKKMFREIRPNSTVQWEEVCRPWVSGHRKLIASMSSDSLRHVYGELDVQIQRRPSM
Procedure: The inhibitor tests were carried out in microtiter plates (0.2 ml). This entailed examination of the ability of the plasma transglutaminase to catalyze the coagulation of fibrin with and without inhibitor [modified method of Tymiak et al., J. Antibiot., 46, 204-206 (1993)].
40 μl of bovine fibrinogen (3 mg/ml, Sigma) in 25 mm Tris-HCl with 100 mm NaCl and 2.5 mm Ca^2+, pH 7.5, were incubated with 2 U/ml bovine thrombin (Sigma) at 25° C. for 10 min.
In a second mixture in parallel therewith, likewise 2 U/ml bovine thrombin (Sigma) were added to 20 μg/ml FXIII in 25 mm Tris-HCl with 100 mm NaCl and 2.5 mm Ca^2+, pH 7.5, and incubated at 25° C. for 10 min. The γ-aldehyde inhibitor concentration was then adjusted so that the measurements covered a concentration range from 0 to 10 μm. The reaction mixture was incubated at 25° C. for 15 min.
The two mixtures were combined and, after an incubation at 30° C. for 15 min, 150 μl of urea (8 M) were added. The absorption of the clots was measured at 405 nm.

[2] = biological target: T1, guinea pig liver transglutaminase; test: Guinea pig liver transglutaminase, incorporation of hydroxylamine into CBZ-Gln-Gly (Example 31); conditions: 0-10 μM inhibitor, 15 min at 25° C.
Procedure: The inhibitor tests were carried out in analogy to the factor XIII test in microtiter plates. In this case, the incorporation of hydroxylamine into carbobenzoxy-L-glutaminylglycine (CBZ-Gln-Gly) was investigated [modified method of Grossowicz et al., J. Biol. Chem., 187, 111 -125 (1950)].
25 μl (0-10 μM) of inhibitor were added to 25 μl (5.0 U/ml) of guinea pig liver transglutaminase (Sigma) and incubated at 25° C. for 15 min. Then 100 μl of 0.2 M tris-acetate buffer, pH 6.0, with 30 mm CBZ-Gln-Gly, 0.1 M hydroxylamine and 10 mM glutathione were pipetted in. After 10 min at 37° C., the absorption at 492 nm was measured using a microtiter plate reader.

Compound: O=C(O)CNC(=O)[C@H](COC(=O)CCl)NC(=O)OCc1ccccc1 [Carbobenzoxy-L-serylglycine β-Chloroacetate] (Cbz-Ser(ClAc)-Gly-OH)
Inhibition of tissue transglutaminase at an inhibitor concentration of 0.05 mM ([1]; 0.05 mM inhibitor): 1%
Inhibition of tissue transglutaminase at an inhibitor concentration of 0.5 mM ([1]; 0.5 mM inhibitor): 43%
Inhibition of tissue transglutaminase at an inhibitor concentration of 5 mM ([1]; 5 mM inhibitor): 91%

Compound: CC(=O)OC[C@H](NC(=O)OCc1ccccc1)C(=O)NCC(=O)O [Carbobenzoxy-L-serylglycine β-acetate, Carbobenzoxy-L-serylqlycine β-acetate] (Cbz-Ser(Ac)-Gly-OH)
Inhibition of tissue transglutaminase at an inhibitor concentration of 0.05 mM ([1]; 0.05 mM inhibitor): 0%
Inhibition of tissue transglutaminase at an inhibitor concentration of 0.5 mM ([1]; 0.5 mM inhibitor): 0%
Inhibition of tissue transglutaminase at an inhibitor concentration of 5 mM ([1]; 5 mM inhibitor): 0%

Compound: O=COC[C@H](NC(=O)OCc1ccccc1)C(=O)NCC(=O)O [Carbobenzoxy-L-serylglycine β-formate, Carbobenzoxy-L-serylglycine β-Formate] (Cbz-Ser(For)-Gly-OH)
Inhibition of tissue transglutaminase at an inhibitor concentration of 0.05 mM ([1]; 0.05 mM inhibitor): 0%
Inhibition of tissue transglutaminase at an inhibitor concentration of 0.5 mM ([1]; 0.5 mM inhibitor): 0%
Inhibition of tissue transglutaminase at an inhibitor concentration of 5 mM ([1]; 5 mM inhibitor): 56%

Compound: CC(C)(C)OC(=O)CNC(=O)[C@H](CNC(N)=O)NC(=O)OCc1ccccc1 [Carbobenzoxy-β-(N-carbamoyl)-L-aminoalanylglycine tert-butyl Ester]
Inhibition of tissue transglutaminase at an inhibitor concentration of 0.05 mM ([1]; 0.05 mM inhibitor): 0%
Inhibition of tissue transglutaminase at an inhibitor concentration of 0.5 mM ([1]; 0.5 mM inhibitor): 0%
Inhibition of tissue transglutaminase at an inhibitor concentration of 5 mM ([1]; 5 mM inhibitor): 0%

Compound: CCOC(=O)CNC(=O)[C@H](COC(C)=O)NC(=O)OCc1ccccc1 [Carbobenzoxy-β-(O-acetyl)-L-serylglycine Ethyl Ester] (Cbz-Ser(Ac)-Gly-OEt)
Inhibition of tissue transglutaminase at an inhibitor concentration of 0.05 mM ([1]; 0.05 mM inhibitor): 0%
Inhibition of tissue transglutaminase at an inhibitor concentration of 0.5 mM ([1]; 0.5 mM inhibitor): 0%
Inhibition of tissue transglutaminase at an inhibitor concentration of 5 mM ([1]; 5 mM inhibitor): 0%

Compound: CCOC(=O)CNC(=O)[C@H](COC(=O)CCl)NC(=O)OCc1ccccc1 [Carbobenzoxy-β-(O-chloroacetyl)-L-serylglycine Ethyl Ester] (Cbz-Ser(ClAc)-Gly-OEt)
Inhibition of tissue transglutaminase at an inhibitor concentration of 0.05 mM ([1]; 0.05 mM inhibitor): 2%
Inhibition of tissue transglutaminase at an inhibitor concentration of 0.5 mM ([1]; 0.5 mM inhibitor): 7%
Inhibition of tissue transglutaminase at an inhibitor concentration of 5 mM ([1]; 5 mM inhibitor): 76%

Compound: CCOC(=O)CNC(=O)[C@H](COC=O)NC(=O)OCc1ccccc1 [Carbobenzoxy-β-(O-formyl)-L-serylglycine Ethyl Ester] (Cbz-Ser(For)-Gly-OEt)
Inhibition of tissue transglutaminase at an inhibitor concentration of 0.05 mM ([1]; 0.05 mM inhibitor): 0%
Inhibition of tissue transglutaminase at an inhibitor concentration of 0.5 mM ([1]; 0.5 mM inhibitor): 0%
Inhibition of tissue transglutaminase at an inhibitor concentration of 5 mM ([1]; 5 mM inhibitor): 0%

Compound: NC(=O)NC[C@H](NC(=O)OCc1ccccc1)C(=O)NCC(=O)O [Carbobenzoxy-β-ureido-L-alanylglycine]
inhibition at 50 µM ([1]; 0.05 mM inhibitor, read-out: Inhibition of tissue transglutaminase at an inhibitor concentration of 0.05 mM): 0%
inhibition at 500 µM ([1]; 0.5 mM inhibitor, read-out: Inhibition of tissue transglutaminase at an inhibitor concentration of 0.5 mM): 0%
inhibition at 5000 µM ([1]; 5 mM inhibitor, read-out: Inhibition of tissue transglutaminase at an inhibitor concentration of 5 mM): 35%

Compound: O=CCC[C@H](NC(=O)OCc1ccccc1)C(=O)NCC(=O)O [γ-Aldehyde of carbobenzoxy-L-glutamylglycine]
Inhibition of factor XIIIa (fibrin crosslinking) (factor XIIIa): cannot be inhibited
Inhibitor concentration at which guinea pig liver transglutaminase is inhibited [2]: 1 µM

Compound: Carbobenzoxy-β-(O-carbamoyl)-L-serylglycine Ethyl Ester
Inhibition of tissue transglutaminase at an inhibitor concentration of 0.05 mM ([1]; 0.05 mM inhibitor): 0%
Inhibition of tissue transglutaminase at an inhibitor concentration of 0.5 mM ([1]; 0.5 mM inhibitor): 0%
Inhibition of tissue transglutaminase at an inhibitor concentration of 5 mM ([1]; 5 mM inhibitor): 0%

Inhibition of factor XIIIa (fibrin crosslinking) (factor XIIIa): effective factor XIIIa inhibitor
Compound: γ-Aldehyde of tert-butyloxycarbonyl-L-glutaminyl-L-glutaminyl-L-isoleucyl-L-valine
